Experimental data as given in PubChem BioAssay (NCI).
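Compound exposure: 48 hours, 5 concentrations, 96-well plates. Abbreviation: GI50, concentration required for 50% inhibition of growth. The concentration for full growth arrest is given as TGI.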

Assays:
Assay in all cases: inhibition of tumour cell growth, NCI panel, 48 h
OVCAR-5 ovarian = system: OVCAR-5 ovarian
OVCAR-4 ovarian = system: OVCAR-4 ovarian
786-0 renal = system: 786-0 renal
SK-MEL-5 melanoma = system: SK-MEL-5 melanoma
HOP-92 NSCLC = system: HOP-92 NSCLC
CAKI-1 renal = system: CAKI-1 renal
U251 CNS = system: U251 CNS
UO-31 renal = system: UO-31 renal
SK-OV-3 ovarian = system: SK-OV-3 ovarian
UACC-62 melanoma = system: UACC-62 melanoma
OVCAR-3 ovarian = system: OVCAR-3 ovarian
SK-MEL-2 melanoma = system: SK-MEL-2 melanoma
HS 578T breast = system: HS 578T breast
MDA-MB-231 breast = system: MDA-MB-231 breast
TK-10 renal = system: TK-10 renal
UACC-257 melanoma = system: UACC-257 melanoma
DU-145 prostate = system: DU-145 prostate
NCI-H226 lung = system: NCI-H226 lung
IGROV1 ovarian = system: IGROV1 ovarian
HT29 colon = system: HT29 colon
SF-295 CNS = system: SF-295 CNS
LOX IMVI melanoma = system: LOX IMVI melanoma
MCF7 breast = system: MCF7 breast
HL-60(TB) leukemia = system: HL-60(TB) leukemia
T-47D breast = system: T-47D breast
HCC-2998 colon = system: HCC-2998 colon
NCI/ADR-RES ovarian = system: NCI/ADR-RES ovarian
ACHN renal = system: ACHN renal
HCT-116 colon = system: HCT-116 colon
BT-549 breast = system: BT-549 breast
OVCAR-8 ovarian = system: OVCAR-8 ovarian
CCRF-CEM leukemia = system: CCRF-CEM leukemia
SNB-75 CNS = system: SNB-75 CNS
MDA-MB-435 = system: MDA-MB-435
KM12 colon = system: KM12 colon
SN12C renal = system: SN12C renal
PC-3 prostate = system: PC-3 prostate
HCT-15 colon = system: HCT-15 colon
SW-620 colon = system: SW-620 colon
RPMI-8226 leukemia = system: RPMI-8226 leukemia
A549 NSCLC = system: A549 NSCLC
NCI-H522 lung = system: NCI-H522 lung
M14 melanoma = system: M14 melanoma
SK-MEL-28 melanoma = system: SK-MEL-28 melanoma
COLO 205 colon = system: COLO 205 colon
A498 renal = system: A498 renal
MOLT-4 leukemia = system: MOLT-4 leukemia
K-562 leukemia = system: K-562 leukemia
MALME-3M melanoma = system: MALME-3M melanoma
SF-539 CNS = system: SF-539 CNS
RXF 393 renal = system: RXF 393 renal
NCI-H460 lung = system: NCI-H460 lung
NCI-H23 lung = system: NCI-H23 lung
HOP-62 NSCLC = system: HOP-62 NSCLC
SR leukemia = system: SR leukemia
SF-268 CNS = system: SF-268 CNS
SNB-19 CNS = system: SNB-19 CNS

With `C=CC(=O)N1CC2(CCC(n3nc(-c4ccc(Oc5ccccc5)cc4)c4c(N)ncnc43)CC2)C1` the GI50 (OVCAR-5 ovarian) was 0.13 µM, the TGI (OVCAR-5 ovarian) was 16.6 µM and the GI50 (OVCAR-4 ovarian) was 1.46 µM. The TGI (OVCAR-4 ovarian) was 14.2 µM, the GI50 (786-0 renal) was 0.0304 µM and the TGI (786-0 renal) was 1.63 µM. It also gave a GI50 (SK-MEL-5 melanoma) of 1.55 µM, a TGI (SK-MEL-5 melanoma) of 2.97 µM and a GI50 (HOP-92 NSCLC) of less than 0.014 µM. For the same molecule, the TGI (HOP-92 NSCLC) was 0.366 µM, the GI50 (CAKI-1 renal) was 0.0283 µM and the TGI (CAKI-1 renal) was 0.709 µM. It also gave a GI50 (U251 CNS) of 0.617 µM, a TGI (U251 CNS) of 12.7 µM and a GI50 (UO-31 renal) of 0.0468 µM. It also gave a TGI (UO-31 renal) of 1.66 µM, a GI50 (SK-OV-3 ovarian) of 0.0525 µM and a TGI (SK-OV-3 ovarian) of 0.787 µM. It also gave a GI50 (UACC-62 melanoma) of 1.02 µM, a TGI (UACC-62 melanoma) of 4.85 µM and a GI50 (OVCAR-3 ovarian) of 0.641 µM. For the same molecule, the TGI (OVCAR-3 ovarian) was 9.61 µM, the GI50 (SK-MEL-2 melanoma) was 1.5 µM and the TGI (SK-MEL-2 melanoma) was 3.63 µM. It also gave a GI50 (HS 578T breast) of 0.108 µM, a TGI (HS 578T breast) of 1.54 µM and a GI50 (MDA-MB-231 breast) of 0.281 µM. For the same molecule, the TGI (MDA-MB-231 breast) was 11.1 µM, the GI50 (TK-10 renal) was 0.0362 µM and the TGI (TK-10 renal) was 0.266 µM. The GI50 (UACC-257 melanoma) was 1.46 µM, the TGI (UACC-257 melanoma) was 8.62 µM and the GI50 (DU-145 prostate) was 0.368 µM. The TGI (DU-145 prostate) was 2.21 µM, the GI50 (NCI-H226 lung) was 0.861 µM and the TGI (NCI-H226 lung) was 15 µM. For the same molecule, the GI50 (IGROV1 ovarian) was less than 0.0125 µM, the TGI (IGROV1 ovarian) was 0.462 µM and the GI50 (HT29 colon) was less than 0.0175 µM. It also gave a TGI (HT29 colon) of 1.34 µM, a GI50 (SF-295 CNS) of 2.3 µM and a TGI (SF-295 CNS) of 15.7 µM. It also gave a GI50 (LOX IMVI melanoma) of less than 0.0106 µM, a TGI (LOX IMVI melanoma) of 0.847 µM and a GI50 (MCF7 breast) of 0.424 µM. It also gave a TGI (MCF7 breast) of 11.4 µM, a GI50 (HL-60(TB) leukemia) of 3.2 µM and a TGI (HL-60(TB) leukemia) of 10 µM. For the same molecule, the GI50 (T-47D breast) was 0.0197 µM, the TGI (T-47D breast) was 5.89 µM and the GI50 (HCC-2998 colon) was 4.8 µM. It also gave a TGI (HCC-2998 colon) of 19.6 µM, a GI50 (NCI/ADR-RES ovarian) of 1.74 µM and a TGI (NCI/ADR-RES ovarian) of 17.5 µM. It also gave a GI50 (ACHN renal) of less than 0.0123 µM, a TGI (ACHN renal) of 0.362 µM and a GI50 (HCT-116 colon) of 0.0407 µM. The TGI (HCT-116 colon) was 1.88 µM, the GI50 (BT-549 breast) was 0.245 µM and the TGI (BT-549 breast) was 9.78 µM. It also gave a GI50 (OVCAR-8 ovarian) of 1.85 µM, a TGI (OVCAR-8 ovarian) of 13.1 µM and a GI50 (CCRF-CEM leukemia) of 3.65 µM. For the same molecule, the TGI (CCRF-CEM leukemia) was 21.9 µM, the GI50 (SNB-75 CNS) was less than 0.0151 µM and the TGI (SNB-75 CNS) was 0.174 µM. For the same molecule, the GI50 (MDA-MB-435) was 1.74 µM, the TGI (MDA-MB-435) was 7.13 µM and the GI50 (KM12 colon) was 3.02 µM. It also gave a TGI (KM12 colon) of 10.8 µM, a GI50 (SN12C renal) of 0.179 µM and a TGI (SN12C renal) of 10.6 µM. For the same molecule, the GI50 (PC-3 prostate) was 1.09 µM, the TGI (PC-3 prostate) was 9.2 µM and the GI50 (HCT-15 colon) was 0.2 µM. It also gave a TGI (HCT-15 colon) of 12.1 µM, a GI50 (SW-620 colon) of 3.98 µM and a TGI (SW-620 colon) of 21.7 µM. For the same molecule, the GI50 (RPMI-8226 leukemia) was 1.51 µM, the TGI (RPMI-8226 leukemia) was 5.8 µM and the GI50 (A549 NSCLC) was 1.46 µM. For the same molecule, the TGI (A549 NSCLC) was 9.41 µM, the GI50 (NCI-H522 lung) was 0.0676 µM and the TGI (NCI-H522 lung) was 0.995 µM. For the same molecule, the GI50 (M14 melanoma) was 1.43 µM, the TGI (M14 melanoma) was 5.23 µM and the GI50 (SK-MEL-28 melanoma) was 2.45 µM. The TGI (SK-MEL-28 melanoma) was 14 µM, the GI50 (COLO 205 colon) was 0.143 µM and the TGI (COLO 205 colon) was 1.28 µM. It also gave a GI50 (A498 renal) of less than 0.0223 µM, a GI50 (MOLT-4 leukemia) of 1.93 µM and a TGI (MOLT-4 leukemia) of 6.39 µM. For the same molecule, the GI50 (K-562 leukemia) was 0.698 µM, the TGI (K-562 leukemia) was 25.6 µM and the GI50 (MALME-3M melanoma) was 1.5 µM. It also gave a TGI (MALME-3M melanoma) of 9.21 µM, a GI50 (SF-539 CNS) of 0.174 µM and a TGI (SF-539 CNS) of 1.91 µM. It also gave a GI50 (RXF 393 renal) of 0.0168 µM, a TGI (RXF 393 renal) of 0.267 µM and a GI50 (NCI-H460 lung) of 3.43 µM. The TGI (NCI-H460 lung) was 16.1 µM, the GI50 (NCI-H23 lung) was 4.39 µM and the TGI (NCI-H23 lung) was 17.3 µM. The GI50 (HOP-62 NSCLC) was 0.0103 µM, the TGI (HOP-62 NSCLC) was 6.5 µM and the GI50 (SR leukemia) was 3.35 µM. For the same molecule, the TGI (SR leukemia) was 18.9 µM, the GI50 (SF-268 CNS) was 0.255 µM and the TGI (SF-268 CNS) was 6.04 µM. For the same molecule, the GI50 (SNB-19 CNS) was 1.23 µM and the TGI (SNB-19 CNS) was 15.7 µM.
